For data set [1], the species on record is Danio rerio. The experiment in a line: Toxicity against zebrafish embryo assessed as head malformation at 50 ug/ml measured at 96 hrs post fertilization by inverted microscopic analysis. The following applies: in vivo. It counts as organism-based.
The species named for data set [2] is Danio rerio. The experiment in a line: Toxicity against zebrafish embryo assessed as growth retardation at 50 ug/ml measured at 96 hrs post fertilization by inverted microscopic analysis. It counts as organism-based. The note with it: in vivo.
The species entered for data set [3] is Danio rerio. The experiment in a line: Toxicity against zebrafish embryo assessed as effect on eyes at 50 ug/ml measured at 96 hrs post fertilization by inverted microscopic analysis. The format is organism-based. The following applies: in vivo.
The nature of data set [4]: Induction of membrane damage in PC/PS liposome assessed as calcein release at MIC after 30 mins by fluorescence-based liposome leakage assay. The format is functional.
Data set [5] is described as follows: Hemolytic effect in sheep RBC assessed as release of hemoglobin at 10 ug/ml after 1 hr. It counts as ADME, cell-based, Ovis aries, Erythrocyte. The note with it: sheep red blood cells, read-out: Activity.
The species entered for data set [6] is Danio rerio. As to the kind of experiment: Toxicity against zebrafish embryo assessed as unhatched embryos at 50 ug/ml measured at 96 hrs post fertilization by inverted microscopic analysis. The format is organism-based. The note with it: in vivo.
Data set [7] is filed under the species Danio rerio. As to the kind of experiment: Toxicity against zebrafish embryo assessed as effect on heart beat at 50 ug/ml measured at 96 hrs post fertilization by inverted microscopic analysis. The format is organism-based. The note with it: in vivo.
Data set [8] is filed under the species Danio rerio. The experiment in a line: Toxicity against zebrafish embryo assessed as effect on blood circulation at 50 ug/ml measured at 96 hrs post fertilization by inverted microscopic analysis. The format is organism-based. The following applies: in vivo.
In data set [9] the test system is Candida albicans. The experiment in a line: Induction of membrane damage in Candida albicans CA5 at MIC measured after 2 hrs by concavaline-FITC/PI/DAPI-staining based fluorescence microscopic analysis relative to DMSO control. It counts as functional.
The species named for data set [10] is Danio rerio. The experiment in a line: Toxicity against zebrafish embryo assessed as effect on otoliths at 50 ug/ml measured at 96 hrs post fertilization by inverted microscopic analysis. The format is organism-based. The note with it: in vivo.
Data set [11] deals with Danio rerio. The experiment in a line: Toxicity against zebrafish embryo assessed as yolk edema at 50 ug/ml measured at 96 hrs post fertilization by inverted microscopic analysis. It counts as organism-based. The following applies: in vivo.
For data set [12], the species on record is Danio rerio. The experiment in a line: Toxicity against zebrafish embryo assessed as skeletal deformities at 50 ug/ml measured at 96 hrs post fertilization by inverted microscopic analysis. The format is organism-based. The note with it: in vivo.
Data set [13] can be described thus: Selectivity index, ratio of IC50 for human MRC5 cell to MIC for Candida albicans ATCC 10231.
The test system of data set [14] is Candida albicans. The experiment in a line: Induction of cell death in Candida albicans CA5 at MIC measured after 2 hrs by concavaline-FITC/PI/DAPI-staining based fluorescence microscopic analysis relative to DMSO control. It counts as functional.

Activity calls are given as the source filed them. The rule behind the calls is not given here.

As for `Cl.Cl.N=C(N)N/N=C/c1ccc(-c2ccc(/C=N/NC(=N)N)s2)cc1`, the Activity in the data set filed under Danio rerio [1] is 0%; in the data set filed under Danio rerio [2], 0%; in the data set filed under Danio rerio [3], 0%; in [4], 8%; in the data set filed under Danio rerio [6], 0%; in the data set filed under Danio rerio [7] it was 0%. The Activity in the data set listed under Danio rerio [8] is on record as 0%; in the data set on Candida albicans [9], 20%; in the data set filed under Danio rerio [10] it was 0%; in the data set on Danio rerio [11], 0%; in the data set listed under Danio rerio [12] it was 0%. In [5], the hemolysis at 1 h, 10 ug/ml came out at 20%.

Take `Cc1ccc(-c2ccc(/C=N/NC(=N)N)s2)cc1.Cl`: in data set [13], the “Selectivity Index” value stood at 2.7. Moreover, the result in the data set with Candida albicans [14] was inactive.

The record behind these values is ChEMBL document CHEMBL3763135, “Synthesis and evaluation of thiophene-based guanylhydrazones (iminoguanidines) efficient against panel of voriconazole-resistant fungal isolates” (Bioorg Med Chem, 2016).
